The values that follow come from BindingDB's records for doi:10.1021/acsmedchemlett.0c00432 (Vanderbilt University, 2020).

The test addresses Metabotropic glutamate receptor 7 (Rattus norvegicus, UniProt P35400). Description: Positive allosteric modulation of rat mGlu7 receptor expressed in HEK293 cells co-expressing Gai5 assessed as potentiation of L-AP4-induced calcium mobilization preincubated for 140 secs and treated with EC20 L-AP4 for 125 secs and followed by subsequent addition of EC80 L-AP4 by Fluo-4-AM dye based fluorescence assay. Background: Calcium flux is commonly read through the fluorescence of an indicator in the cells.

The structures appear in SMILES notation.

Chain of Metabotropic glutamate receptor 7 (P35400 whole entry): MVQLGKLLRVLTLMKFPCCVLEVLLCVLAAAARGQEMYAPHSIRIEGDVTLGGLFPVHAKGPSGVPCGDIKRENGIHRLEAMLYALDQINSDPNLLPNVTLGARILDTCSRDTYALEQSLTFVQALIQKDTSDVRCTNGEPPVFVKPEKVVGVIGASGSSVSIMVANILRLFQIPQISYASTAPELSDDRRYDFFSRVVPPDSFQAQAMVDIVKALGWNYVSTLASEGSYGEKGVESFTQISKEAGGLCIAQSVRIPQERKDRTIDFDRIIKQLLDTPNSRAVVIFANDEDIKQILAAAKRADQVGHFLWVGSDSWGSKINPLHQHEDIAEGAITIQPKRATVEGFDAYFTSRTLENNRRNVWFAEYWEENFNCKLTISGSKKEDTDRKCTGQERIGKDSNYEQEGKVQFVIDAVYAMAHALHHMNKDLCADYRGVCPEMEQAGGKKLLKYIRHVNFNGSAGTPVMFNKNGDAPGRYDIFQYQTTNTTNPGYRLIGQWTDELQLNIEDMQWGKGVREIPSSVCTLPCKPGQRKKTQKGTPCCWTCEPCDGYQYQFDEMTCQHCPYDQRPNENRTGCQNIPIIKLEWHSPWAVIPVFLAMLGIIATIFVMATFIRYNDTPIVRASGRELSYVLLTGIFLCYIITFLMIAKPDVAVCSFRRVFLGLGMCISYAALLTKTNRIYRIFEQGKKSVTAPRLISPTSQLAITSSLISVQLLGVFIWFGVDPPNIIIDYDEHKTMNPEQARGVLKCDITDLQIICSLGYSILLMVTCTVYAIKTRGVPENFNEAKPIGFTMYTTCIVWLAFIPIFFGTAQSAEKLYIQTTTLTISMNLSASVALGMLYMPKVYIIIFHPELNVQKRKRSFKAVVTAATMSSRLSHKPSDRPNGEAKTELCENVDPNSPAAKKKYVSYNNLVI

In the case of `N#Cc1cnc2c(OC3CCOC3)cccc2c1N1CCN(c2ccccc2F)CC1` (stereo unspecified), the EC50 was determined as 1540 nM.

What is called EC50 is the concentration that produces a half-maximal response.
